Measurements: US5547684A, “Cosmetic composition containing a DNA-sodium salt and methods of making and using the same” (priority 1993, dated 1996)

What was measured:
white mice = assay: in vivo; conditions: for surviving mice / infected mice: Table 3
Protocol: (§1) The studies on toxicity of AC-1 and AC-4 and of aziodothymidine were conducted on non-linear white mice weighing 6 to 7 grams, making use of different concentrations of preparations per kg of weight of the animal in the volume of 0.2 ml in hypodermic, intranasal and intraabdominal injections and 0.03 ml in intracerebral injections. The animals were kept under observation for 2 weeks and then LD50 was calculated using Curber method. The lethal dose of the preparation which has caused death of 50% of the animals was considered an LD50 dose. The preparation was used as a sterile solution was a concentration of 0.05%.
(§2) The animals were kept under observation for 2 weeks and then LD50 was calculated using Curber method. The lethal dose of the preparation which caused death of 50% of the animal was considered the LD50 dose.

in vivo = conditions: mouse, in vivo
Protocol: as §1, §2

mice = conditions: 10 mg/kg injected intercerebrally; cited from earlier work
normal cells = conditions: cited from earlier work
HIV-1 (HTLV-IIIB) = assay: Anti-virus activity of AC-series preparations on infected cells (syncitia, p24 antigen); type: cell-based
Protocol: Antiviral activity of these preparations toward HIV-1 was studied using as the model, cellular cultures infected with HIV-1.
The testing of anti-virus activity was conducted using two types of interwoven cellar lines sensitive to infecting by AIDS-virus--the MT-4 cells and Yurkat tat III cells. The cells were harvested in suspension form in a PPMI 1640 medium containing 15% of fetal serum with exposure to the atmosphere characterized by 5% CO2 content, 98% humidity level and 37% C. temperature level. The cells were infected by the HTLV-IIIB culture of AIDS-1 virus in accordance with WHO recommendations for conducting scientific researches on testing pharmaceutical preparations. The methods used for determining anti-virus activity of the tested preparations are recommended for similar purposes by the WHO Reference Laboratory (Belgium) headed by Professor de Clerk who is an internationally recognized leading expert in synthesis and screening chemical preparations for AIDs treatment (I. Antimicrob. Chemoter., 1989, No. 23, Suppl. A 35-46). […]
(§3) The cells were incubated for 6 days under similar conditions and thereafter their viability was determined as well as formation of virus-induced syncytia and virus antigen (p24) using immunofermental analysis. […] The viable cells were counted using thripane blue dye-stuff in the Goryayev chamber.

[1] = tested on: HIV (HIV-IVS and HIV-1 HTLV/IIIB strains); assay: HIV suppression in vitro (syncitia, viral antigen IFA), CEM-SS and MT-4 cells; type: cell-based; conditions: Table 1; comparison preparation, no ratio
Protocol: Complexes of DNA-Na with zinc, cobalt, nickel and iron were used for HIV suppression in in vitro systems with various concentrations of the components in the complexes. AZT manufactured by "Wellcome" Company was used for comparison purposes. The antiviral activity of the preparation was tested according to the method recommended by WHPO for these purposes. CEM-SS and MT-4 reinoculated human cell lines were used. The cells were cultivated in the concentration of (0.03-0.05)*10^6 cells per 1 ml of RPMI 1640 medium with 10% calf fetal serum, […] of L-glutamine, 100 mcg/ml of gentamicin and grown in the form of a suspension. The vitality of cells was tested by dyeing them with 0.4% solution of threpane blue dye stuff. HIV-IVS and HIV-1 HTLV/IIIB strains were used as the virus sources.
The cell suspension was placed into 24 well panels, processed by various doses of preparations and then infected by HIV. The infection multiplicity was 0.01 TCD50 per cell. After that, the cultures were incubated at 37° C. in a 5% CO2 atmosphere and 98% humidity for 5-7 days up to the moment of defining the cytopathic effect of the virus upon the cell culture.
Immunophermentative analysis was used to define formation of viral antigen.

[2] = tested on: MT-4 cells and Yurkat tat III cells; assay: Cell viability / toxic effect on cells, AC-series preparations; type: cell-based, human
Protocol: The testing of anti-virus activity was conducted using two types of interwoven cellar lines sensitive to infecting by AIDS-virus--the MT-4 cells and Yurkat tat III cells. The cells were harvested in suspension form in a PPMI 1640 medium containing 15% of fetal serum with exposure to the atmosphere characterized by 5% CO2 content, 98% humidity level and 37% C. temperature level. The cells were infected by the HTLV-IIIB culture of AIDS-1 virus in accordance with WHO recommendations for conducting scientific researches on testing pharmaceutical preparations. The methods used for determining anti-virus activity of the tested preparations are recommended for similar purposes by the WHO Reference Laboratory (Belgium) headed by Professor de Clerk who is an internationally recognized leading expert in synthesis and screening chemical preparations for AIDs treatment (I. Antimicrob. Chemoter., 1989, No. 23, Suppl. A 35-46). The work was done at the Virology Institute of the U.S.S.R. Academy of Medical Sciences on MT-4 human lymphoid cells and on Yurkat tat III cells as indicated above.
as §3

CEM-SS and MT-4 cells = assay: Cytotoxicity of preparations, threpane blue vitality of cells; type: cell-based, human; conditions: Table 1; comparison preparation, no ratio
Protocol: The antiviral activity of the preparation was tested according to the method recommended by WHPO for these purposes. CEM-SS and MT-4 reinoculated human cell lines were used. The cells were cultivated in the concentration of (0.03-0.05)*10^6 cells per 1 ml of RPMI 1640 medium with 10% calf fetal serum, 300 mg/ml of L-glutamine, 100 mcg/ml of gentamicin and grown in the form of a suspension. The vitality of cells was tested by dyeing them with 0.4% solution of threpane blue dye stuff. HIV-IVS and HIV-1 HTLV/IIIB strains were used as the virus sources.

Cc1cn([C@H]2C[C@H](N=[N+]=[N-])[C@@H](CO)O2)c(=O)[nH]c1=O [AZT, azidothymidine]
surviving mice / infected mice (white mice; hypoderm., 5 mg/kg): 6/6 | surviving mice / infected mice (white mice; hypoderm., 10 mg/kg): 6/6 | surviving mice / infected mice (white mice; hypoderm., 20 mg/kg): 6/6 | surviving mice / infected mice (white mice; hypoderm., 35 mg/kg): 6/6 | surviving mice / infected mice (white mice; hypoderm., 50 mg/kg): 6/6 | surviving mice / infected mice (white mice; hypoderm., 75 mg/kg): 6/6 | surviving mice / infected mice (white mice; in/abdom., 5 mg/kg): 6/6 | surviving mice / infected mice (white mice; in/abdom., 10 mg/kg): 6/6 | surviving mice / infected mice (white mice; in/abdom., 20 mg/kg): 6/6 | surviving mice / infected mice (white mice; in/abdom., 35 mg/kg): 6/6 | surviving mice / infected mice (white mice; in/abdom., 50 mg/kg): 6/6 | surviving mice / infected mice (white mice; in/abdom., 75 mg/kg): 6/6 | surviving mice / infected mice (white mice; in/cerebr., 5 mg/kg): 6/6 | surviving mice / infected mice (white mice; in/cerebr., 10 mg/kg): 6/6 | surviving mice / infected mice (white mice; in/cerebr., 20 mg/kg): 6/6 | surviving mice / infected mice (white mice; in/cerebr., 35 mg/kg): 6/6 | surviving mice / infected mice (white mice; in/cerebr., 50 mg/kg): 6/6 | surviving mice / infected mice (white mice; in/cerebr., 75 mg/kg): 6/6 | surviving mice / infected mice (white mice; in/nasal, 5 mg/kg): 6/6 | surviving mice / infected mice (white mice; in/nasal, 10 mg/kg): 6/6 | surviving mice / infected mice (white mice; in/nasal, 20 mg/kg): 6/6 | surviving mice / infected mice (white mice; in/nasal, 35 mg/kg): 6/6 | surviving mice / infected mice (white mice; in/nasal, 50 mg/kg): 6/6 | surviving mice / infected mice (white mice; in/nasal, 75 mg/kg): 6/6 | toxicity (white mice; all injection methods, 5 to 50 mg/kg, except intracerebral 10 to 50 mg/kg): non-toxic | LD50 at 336 h (in vivo): 10 mg/kg | mortality at 336 h (in vivo; 10 mg/kg): 50% | death of animals (mice): 50% | normal cells killed (normal cells; optimal dose): about 30% | CC50 (normal cells; read-out: LD50 for cells, cells): ≤ 100 mM | antigen (p24) content (HIV-1 (HTLV-IIIB); 1.0 mcm/ml, virus control 2.0 ng/ml): 1 ng/mL | immunofermental activity (HIV-1 (HTLV-IIIB); Table 2, virus antigen (p24), 270 mkg/ml, 6th day): 0.1 ng/mL | IFA optical density [1]: 0.091 | IFA viral antigen [1]: 0.1 ng/mL | quantity of syncitia, % from the control virus [1]: 8% | viability at 270 µg/mL ([2]; Homo sapiens, MT4, 144 h): 96% | toxicity on the cell level ([2]; all the above biologically active concentrations): nontoxic | cytotoxicity: quantity of cells in ml of cultural liquid (CEM-SS and MT-4 cells): 0.61 × 10^8
